Data: PMC4780864, “Family-wide Structural Analysis of Human Numb-Associated Protein Kinases” (Structure(London, England:1993), 2016)

What was measured:
Assay in all cases: biochemical
GAK = target: T1, GAK (Homo sapiens, UniProt O14976); parameters: Thermal shift assay (DSF, SYPRO Orange), 2 uM kinase domain, mean delta Tm of triplicates versus DMSO; settings: read-out: GAK
T1 construct: catalytic domain-containing construct
T1 sequence (O14976 1-1311): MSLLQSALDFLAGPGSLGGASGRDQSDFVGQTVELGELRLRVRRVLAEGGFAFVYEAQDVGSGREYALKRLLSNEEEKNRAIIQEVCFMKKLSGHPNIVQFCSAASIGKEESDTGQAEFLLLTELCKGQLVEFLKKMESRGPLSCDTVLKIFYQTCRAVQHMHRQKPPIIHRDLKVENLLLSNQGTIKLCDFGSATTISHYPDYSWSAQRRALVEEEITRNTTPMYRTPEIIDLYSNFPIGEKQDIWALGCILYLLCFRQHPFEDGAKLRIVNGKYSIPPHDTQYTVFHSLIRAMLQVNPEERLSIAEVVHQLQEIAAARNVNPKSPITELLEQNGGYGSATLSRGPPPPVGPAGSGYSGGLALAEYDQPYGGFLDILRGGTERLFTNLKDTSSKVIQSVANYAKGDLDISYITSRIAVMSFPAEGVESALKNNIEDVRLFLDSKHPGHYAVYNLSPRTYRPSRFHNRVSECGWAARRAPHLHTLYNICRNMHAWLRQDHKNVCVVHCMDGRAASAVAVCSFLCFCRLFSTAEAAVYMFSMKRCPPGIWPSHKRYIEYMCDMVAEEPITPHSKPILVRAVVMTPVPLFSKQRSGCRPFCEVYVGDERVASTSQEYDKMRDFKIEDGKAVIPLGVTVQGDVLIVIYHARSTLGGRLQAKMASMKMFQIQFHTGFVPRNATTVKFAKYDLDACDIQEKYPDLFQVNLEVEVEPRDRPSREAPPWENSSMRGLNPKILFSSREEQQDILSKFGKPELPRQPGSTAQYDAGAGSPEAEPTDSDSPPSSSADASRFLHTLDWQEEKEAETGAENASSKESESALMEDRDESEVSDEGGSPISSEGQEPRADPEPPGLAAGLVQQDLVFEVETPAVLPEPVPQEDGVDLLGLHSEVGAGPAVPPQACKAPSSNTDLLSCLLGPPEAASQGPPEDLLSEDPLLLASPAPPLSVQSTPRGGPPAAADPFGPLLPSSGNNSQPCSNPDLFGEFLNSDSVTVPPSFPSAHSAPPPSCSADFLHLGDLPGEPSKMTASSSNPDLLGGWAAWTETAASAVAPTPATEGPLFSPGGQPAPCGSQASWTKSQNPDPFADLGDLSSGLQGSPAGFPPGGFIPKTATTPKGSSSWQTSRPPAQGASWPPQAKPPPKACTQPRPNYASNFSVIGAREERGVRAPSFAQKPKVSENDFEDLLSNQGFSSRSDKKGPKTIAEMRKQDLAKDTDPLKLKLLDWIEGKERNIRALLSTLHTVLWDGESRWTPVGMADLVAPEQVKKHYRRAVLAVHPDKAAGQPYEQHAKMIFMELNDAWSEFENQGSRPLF
Method: (§1) All measurements were performed in triplicate and mean values were reported for all compounds (Table S1). […] However, NAKs are often omitted from selectivity panels, including commercial screens.

MPSK1 = target: T2, MPSK1 (Homo sapiens, UniProt O75716); parameters: Thermal shift assay (DSF, SYPRO Orange), 2 uM kinase domain, mean delta Tm of triplicates versus DMSO; settings: for ΔTm at 12.5 µM: read-out: MPSK1
T2 construct: gene STK16; catalytic domain-containing construct
Method: as §1

BIKE = target: T3, BIKE (Homo sapiens, UniProt Q9NSY1); parameters: Thermal shift assay (DSF, SYPRO Orange), 2 uM kinase domain, mean delta Tm of triplicates versus DMSO; settings: read-out: BIKE
T3 construct: gene BMP2K; catalytic domain-containing construct
Method: as §1

AAK1 = AAK1 (Homo sapiens, UniProt Q2M2I8); parameters: kinase domain; Thermal shift assay (DSF, SYPRO Orange), 2 uM kinase domain, mean delta Tm of triplicates versus DMSO; settings: read-out: AAK1
Method: as §1

T2 sequence (O75716 whole entry, the tested form may be a part): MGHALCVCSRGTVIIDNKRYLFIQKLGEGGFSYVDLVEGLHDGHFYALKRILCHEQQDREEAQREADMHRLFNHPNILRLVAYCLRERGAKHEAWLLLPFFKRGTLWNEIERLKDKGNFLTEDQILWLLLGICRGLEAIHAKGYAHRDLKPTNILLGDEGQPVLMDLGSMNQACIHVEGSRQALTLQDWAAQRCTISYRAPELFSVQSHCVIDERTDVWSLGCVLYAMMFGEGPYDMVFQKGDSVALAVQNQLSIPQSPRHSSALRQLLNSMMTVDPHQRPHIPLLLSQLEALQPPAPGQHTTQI
T3 sequence (Q9NSY1 whole entry, the tested form may be a part): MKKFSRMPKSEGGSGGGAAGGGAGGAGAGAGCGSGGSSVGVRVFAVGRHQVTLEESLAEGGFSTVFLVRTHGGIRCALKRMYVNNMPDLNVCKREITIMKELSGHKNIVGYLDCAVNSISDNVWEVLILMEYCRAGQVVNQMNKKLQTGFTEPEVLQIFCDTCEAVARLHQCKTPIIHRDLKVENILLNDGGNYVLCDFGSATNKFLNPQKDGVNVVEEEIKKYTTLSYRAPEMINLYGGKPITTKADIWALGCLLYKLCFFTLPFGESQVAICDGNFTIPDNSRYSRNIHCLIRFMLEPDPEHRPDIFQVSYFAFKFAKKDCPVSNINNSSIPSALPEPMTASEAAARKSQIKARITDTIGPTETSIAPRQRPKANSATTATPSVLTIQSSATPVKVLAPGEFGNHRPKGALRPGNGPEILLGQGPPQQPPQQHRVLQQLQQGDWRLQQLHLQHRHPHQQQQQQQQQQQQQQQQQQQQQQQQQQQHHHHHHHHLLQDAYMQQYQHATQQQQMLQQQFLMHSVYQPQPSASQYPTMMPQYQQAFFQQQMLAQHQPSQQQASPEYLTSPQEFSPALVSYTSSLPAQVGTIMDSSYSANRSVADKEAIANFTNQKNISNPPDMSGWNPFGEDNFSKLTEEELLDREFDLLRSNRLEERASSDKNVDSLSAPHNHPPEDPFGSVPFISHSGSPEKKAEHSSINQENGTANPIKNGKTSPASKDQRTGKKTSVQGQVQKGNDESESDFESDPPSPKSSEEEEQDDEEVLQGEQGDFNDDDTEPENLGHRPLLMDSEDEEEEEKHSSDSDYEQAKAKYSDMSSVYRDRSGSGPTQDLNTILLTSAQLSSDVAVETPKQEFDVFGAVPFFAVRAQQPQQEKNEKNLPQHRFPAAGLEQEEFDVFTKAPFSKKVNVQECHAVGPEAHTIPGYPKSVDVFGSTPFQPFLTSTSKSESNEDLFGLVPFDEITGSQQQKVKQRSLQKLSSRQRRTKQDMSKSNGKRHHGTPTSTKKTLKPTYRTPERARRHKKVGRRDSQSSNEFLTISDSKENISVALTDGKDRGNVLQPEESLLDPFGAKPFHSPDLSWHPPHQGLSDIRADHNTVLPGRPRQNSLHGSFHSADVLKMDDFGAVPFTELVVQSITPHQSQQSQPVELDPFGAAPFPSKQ
Sequence of AAK1 (Q2M2I8 27-365 limits assumed): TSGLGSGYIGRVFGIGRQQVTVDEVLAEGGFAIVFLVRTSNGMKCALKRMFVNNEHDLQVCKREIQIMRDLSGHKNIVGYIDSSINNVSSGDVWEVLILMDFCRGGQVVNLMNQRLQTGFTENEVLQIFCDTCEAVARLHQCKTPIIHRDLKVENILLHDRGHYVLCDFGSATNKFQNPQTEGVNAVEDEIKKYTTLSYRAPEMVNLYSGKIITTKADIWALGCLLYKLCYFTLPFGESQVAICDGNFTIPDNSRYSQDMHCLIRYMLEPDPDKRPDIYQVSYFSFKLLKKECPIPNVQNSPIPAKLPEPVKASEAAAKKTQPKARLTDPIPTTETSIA

ΔTm at 12.5 µM (GAK) [°C] | ΔTm at 12.5 µM (MPSK1) [°C] | ΔTm at 12.5 µM (BIKE) [°C] | ΔTm at 12.5 µM (AAK1) [°C] | MPSK1 (MPSK1; 12.5 µM) [°C] | SMILES
7.28 | 0.97 | 5.85 | 3.8 | – | COc1cc2ncnc(Nc3ccc(F)c(Cl)c3)c2cc1NC(=O)/C=C/CN1CCCCC1 [Dacomitinib]
2.88 | – | 8.65 | 6.18 | 5.233 | N#CC[C@H](C1CCCC1)n1cc(-c2ncnc3[nH]ccc23)cn1 [Ruxolitinib]
2.74 | 4.59 | 3.48 | 3.06 | – | CC[C@@H]1C(=O)N(C)c2cnc(Nc3ccc(C(=O)N[C@H]4CC[C@H](N5CCN(CC6CC6)CC5)CC4)cc3OC)nc2N1C(C)C [Volasertib]
8.95 | 12.4 | 14 | 10.6 | – | Cc1cnc(Nc2ccc(OCCN3CCCC3)cc2)nc1Nc1cccc(S(=O)(=O)NC(C)(C)C)c1 [Fedratinib]
-0.05 | 1.49 | 0.873 | 0.747 | – | Cn1c(=O)n(-c2ccc(C(C)(C)C#N)cc2)c2c3cc(-c4cnc5ccccc5c4)ccc3ncc21 [Dactolisib]
4.52 | 9.49 | 15.6 | 12.1 | – | O=C(Nc1c[nH]nc1-c1nc2ccc(CN3CCOCC3)cc2[nH]1)NC1CC1 [AT9283]
3.39 | 0.97 | 0.583 | 0.47 | – | Cc1cccc(-c2nn3c(c2-c2ccnc4ccc(C(N)=O)cc24)CCC3)n1 [Galunisertib]
0.667 | 1.03 | 1.58 | 0.543 | – | COc1cc2c(Oc3ccc4[nH]c(C)cc4c3F)ncnc2cc1OCCCN1CCCC1 [Cediranib]
3.38 | 0.897 | 1.95 | 1.31 | – | CN(C)C/C=C/C(=O)Nc1cc2c(Nc3ccc(F)c(Cl)c3)ncnc2cc1O[C@H]1CCOC1 [Afatinib]
1.75 | 1.1 | 0.127 | 1.05 | – | COc1cc2/c(=N/c3ccc(Br)cc3F)nc[nH]c2cc1OCC1CCN(C)CC1 [Vandetanib]
5.42 | 0.873 | 0.73 | 1.03 | – | CNC(=O)c1cc(Oc2ccc(NC(=O)Nc3ccc(Cl)c(C(F)(F)F)c3)cc2)ccn1 [Sorafenib]
0.437 | 0.7 | 0.3 | 0.467 | – | CC1(C)CNc2cc(NC(=O)c3cccnc3NCc3ccncc3)ccc21 [Motesanib]
0.82 | 0.147 | -1.36 | -0.183 | – | C=CCN(/C=C1/C(=O)O[C@H](COC)[C@@]2(C)C1=C(O)C(=O)C1=C2[C@H](OC(C)=O)C[C@]2(C)C(=O)CC[C@@H]12)CC=C [Sonolisib]
-0.55 | 0.39 | 0.99 | 0.00667 | – | COc1ccc(Cl)c(Nc2nc3ccccc3nc2NS(=O)(=O)c2cccc(NC(=O)C(C)(C)N)c2)c1 [Pilaralisib]
2.18 | 0.293 | 4.37 | 2.62 | – | Cc1c(NC(=O)OC[C@@H]2COCCN2)cn2ncnc(Nc3ccc4c(cnn4Cc4cccc(F)c4)c3)c12 [BMS-599626]
16.7 | 1.09 | 14 | 11.4 | – | COc1cc(O)c2c(c1)/C=C/C[C@H](O)[C@H](O)C(=O)/C=C\C[C@H](C)OC2=O [(5Z)-7-oxozeaenol, (3S,5Z,8S,9S,11E)-3,4,9,10-tetrahydro-8,9,16-trihydroxy-14-methoxy-3-methyl-1H-2-benzoxacyclotetradecin-1,7(8H)-dione]

ΔTm at 12.5 µM (GAK) [°C] | ΔTm at 12.5 µM (MPSK1) [°C] | ΔTm at 12.5 µM (BIKE) [°C] | ΔTm at 12.5 µM (AAK1) [°C] | MPSK1 (MPSK1; 12.5 µM) [°C] | SMILES
9.49 | 6.45 | 19.1 | 17.8 | – | Cn1cc(-c2[nH]c3cc(NC(=O)[C@H](N)C4CCCCC4)cc4c3c2C=NNC4=O)cn1 [PF-00477736]
0.58 | 6.33 | 7.61 | 1.78 | – | COC(=O)c1ccc2c(c1)NC(=O)/C2=C(\Nc1ccc(N(C)C(=O)CN2CCN(C)CC2)cc1)c1ccccc1 [nintedanib]
-1.45 | 0.627 | 0.147 | -0.203 | – | Cc1cnc(Nc2ccc(F)cc2Cl)nc1-c1c[nH]c(C(=O)N[C@H](CO)c2cccc(Cl)c2)c1 [VX-11E]
4.57 | 2.51 | 1.1 | 1.07 | – | Cc1ccc(NC(=O)c2ccc(CN3CC[C@H](N(C)C)C3)c(C(F)(F)F)c2)cc1Nc1nccc(-c2cncnc2)n1 [Bafetinib]
0.733 | 7.72 | 5.02 | 2.94 | – | CC(=O)c1c(C)c2cnc(Nc3ccc(N4CCNCC4)cn3)nc2n(C2CCCC2)c1=O [Palbociclib]
-0.593 | 1.43 | 0.623 | 0.327 | – | COc1ccc(-c2cc3c(C)nc(N)nc3n([C@H]3CC[C@H](OCCO)CC3)c2=O)cn1 [PF-04691502]
6.52 | 4.12 | 6.16 | 5.37 | – | COc1cc(OC2CCN(C)CC2)ccc1Nc1ncc2c(n1)n(C1CCCC1)c(=O)n2C [AZ3146]
-0.823 | 0.87 | 0.697 | 0.46 | – | O=C1NC(=O)[C@@H](c2cn3c4c(cccc24)CCC3)[C@@H]1c1c[nH]c2ccccc12 [Tivantinib]
3.81 | 3.24 | 10.2 | 6.74 | – | CN1CCC(CNc2ccc3ncc(-c4cccc(OC(F)(F)F)c4)n3n2)CC1 [SGI-1776]
1.03 | 1.86 | 9.4 | 5.19 | – | CN(C)C[C@@H]1CCn2cc(c3ccccc32)C2=C(C(=O)NC2=O)c2cn(c3ccccc23)CCO1 [Ruboxistaurin]
0.75 | 3.09 | 12.4 | 6.85 | – | CNC(=O)c1ccccc1Sc1ccc2c(/C=C/c3ccccn3)n[nH]c2c1 [Axitinib]
-1.13 | 1 | 0.5 | 0.23 | – | CCc1cnn2c(NCc3ccc[n+]([O-])c3)cc(N3CCCC[C@H]3CCO)nc12 [Dinaciclib]
3.33 | 6.45 | 5.45 | 4.05 | – | COc1ncc(-c2ccc3nccc(-c4ccnnc4)c3c2)cc1NS(=O)(=O)c1ccc(F)cc1F [GSK2126458]
-0.663 | 0.933 | 0.437 | 0.283 | – | Nc1ncnc2c1c(COc1cccc(Cl)c1)nn2C1CCOCC1 [PF-4800567]
-0.197 | 6.5 | 5.45 | 3.26 | – | COc1cc(CCc2cc(NC(=O)c3ccc(N4C[C@@H](C)N[C@@H](C)C4)cc3)n[nH]2)cc(OC)c1 [AZD4547]
0.0467 | 3.53 | 1.11 | 0.69 | – | CC(C)(C)c1cnc(CSc2cnc(NC(=O)C3CCNCC3)s2)o1 [SNS-032]
